Data on 4 molecules can be found in ChEMBL document CHEMBL1132330 (J Med Chem, 1999).

Assay [1] deals with T1, Substance-K receptor (Homo sapiens, UniProt P21452).
T1 sequence (P21452 whole entry): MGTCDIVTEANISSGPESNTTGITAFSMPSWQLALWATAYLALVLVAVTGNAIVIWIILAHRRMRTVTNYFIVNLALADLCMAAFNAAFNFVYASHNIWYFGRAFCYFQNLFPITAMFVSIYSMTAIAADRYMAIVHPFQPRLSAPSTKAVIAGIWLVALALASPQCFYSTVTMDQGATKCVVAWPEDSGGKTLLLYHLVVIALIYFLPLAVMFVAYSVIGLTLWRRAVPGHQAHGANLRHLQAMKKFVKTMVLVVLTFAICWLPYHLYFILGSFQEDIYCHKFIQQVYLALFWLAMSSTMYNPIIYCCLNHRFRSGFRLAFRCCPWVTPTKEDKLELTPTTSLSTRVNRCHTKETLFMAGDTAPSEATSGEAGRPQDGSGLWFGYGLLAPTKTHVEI
Kind of assay: The compound was tested for competition binding with [3H]NKA against the CHO cells from cloned human Tachykinin receptor 2. The class given is cell-based.

Assay [2] deals with T1, Substance-K receptor. Kind of assay: Inhibitory activity against human Tachykinin receptor 2.
Assay [3] deals with Substance-K receptor (Mesocricetus auratus). The assay can be described thus: Efficacy towards hamster Tachykinin receptor 2 was determined.

For the molecule `CSCC[C@H](NC(=O)[C@H](CC(C)C)NC(=O)CNC(=O)[C@@H](NC(=O)[C@H](Cc1ccccc1)NC(=O)[C@H](Cc1ccccc1)NC(=O)[C@H](CC(=O)O)NC(=O)[C@H](Cc1c[nH]cn1)NC(=O)[C@H](CCSC)NC(=O)[C@@H](N)CC(=O)O)C(C)C)C(N)=O` [NEUROKININ B], on Substance-K receptor [1], the inhibition constant (Ki) – broadly, a measure of affinity in units of concentration, obtained from inhibition or displacement – worked out at 42.2 nM. Inhibition on Substance-K receptor [2] was half-maximal at 102 nM (IC50).

With `CC(C)CC[C@H](NC(=O)[C@H](CC(C)C)NC(=O)CNC(=O)[C@@H](NC(=O)[C@H](Cc1ccccc1)NC(=O)[C@@H](NC(=O)[C@@H](N)CC(=O)O)[C@@H](C)O)C(C)C)C(N)=O`, the Efficacy in assay [3] turned out to be 116.

In assay [3], `CC(C)CC[C@H](NC(=O)[C@H](CC(C)C)NC(=O)CNC(=O)[C@@H](NC(=O)[C@H](Cc1ccc(F)cc1)NC(=O)[C@@H](NC(=O)[C@@H](N)CC(=O)O)[C@@H](C)O)C(C)C)C(N)=O` registered an Efficacy of 114.

With `CC(C)CC[C@H](NC(=O)[C@H](CC(C)C)NC(=O)CNC(=O)[C@@H](NC(=O)[C@H](Cc1ccc(Cl)cc1)NC(=O)[C@@H](NC(=O)[C@@H](N)CC(=O)O)[C@@H](C)O)C(C)C)C(N)=O`, the Efficacy in assay [3] came out at 97.8.
